Measurements from patent US20070116839A1, “High-Potency Sweetener Composition With C-Reactive Protein Reducing Substance and Compositions Sweetened Therewith” (THE COCA-COLA COMPANY, priority 2005, published 2007).

Columns and labels:
[1] = Sensory evaluation of sweetness linger and sugar-like taste by expert panel; assay type: in vivo; design: key: 0=no sweetness linger; 1=very slight sweetness linger; 2=slight sweetness linger; 3=moderate sweetness linger; 4=moderately high sweetness linger; 5=high sweetness linger; details: for Sweetness linger: scale 0-5; for Sweetness Linger rating (defined for the protocol): scale anchors: sucrose, 500 ppm REBA control sample
Protocol: In a particular embodiment, a panel of assessors is used to measure the reduction of sweetness linger. Briefly described, a panel of assessors (generally 8 to 12 individuals) is trained to evaluate sweetness perception and measure sweetness at several time points from when the sample is initially taken into the mouth until 3 minutes after it has been expectorated. […] A decrease in score for a time point measured after the sample has cleared the mouth indicates there has been a reduction in sweetness perception.
The panel of assessors may be trained using procedures well known to those of ordinary skill in the art. In a particular embodiment, the panel of assessors may be trained using the Spectrum™ Descriptive Analysis Method (Meilgaard et al, Sensory Evaluation Techniques, 3rd edition Chapter 11). Desirably, the focus of training should be the recognition of and the measure of the basic tastes; specifically, sweet. In order to ensure accuracy and reproducibility of results, each assessor should repeat the measure of the reduction of sweetness linger about three to about five times per sample, taking at least a five minute break between each repetition and/or sample and rinsing well with water to clear the mouth.
Generally, the method of measuring sweetness comprises taking a 10 mL sample into the mouth, holding the sample in the mouth for 5 seconds and gently swirling the sample in the mouth, rating the sweetness intensity perceived at 5 seconds, expectorating the sample (without swallowing following expectorating the sample), rinsing with one mouthful of water (e.g., vigorously moving water in mouth as if with mouth wash) and expectorating the rinse water, rating the sweetness intensity perceived immediately upon expectorating the rinse water, waiting 45 seconds and, while wating those 45 seconds, identifying the time of maximum perceived sweetness intensity and rating the sweetness intensity at that time (moving the mouth normally and swallowing as needed), rating the sweetness intensity after another […], rating the sweetness intensity after another 60 seconds (cumulative 120 seconds after rinse), and rating the sweetness intensity after still another 60 seconds (cumulative 180 seconds after rinse), Between samples take a 5 minute break, rinsing well with water to clear the mouth.
Sensory evaluation of the samples prepared in Example Set G was carried out under the following protocol, similar to that described hereinabove. In this test protocol, none of the samples were swallowed. […] Immediately upon sensing maximal sweetness, the sample was expectorated, the mouth was rinsed with water and the rate of sweetness decay (“Sweetness Linger”) was measured, where attention was focused on the sweetness 3-4 min after the water rinse. […]

[2] = Sweetness stated as sucrose equivalent; assay type: in vivo
[3] = Rate of dissolution in H2O at 25° C. of rebaudioside A polymorph and amorphous forms; assay type: physicochemical
[4] = assay type: physicochemical
Protocol: A solution of rebaudioside A (>97% pure by HPLC ) was prepared in double distilled water (12.5 gm in 50 mL, 25% concentration) by stirring the mixture at 40° C. for 5 minutes. An amorphous form of rebaudioside A was formed by immediately using the clear solution for spray drying with the Lab-Plant spray drier SD-04 instrument (Lab-Plant Ltd., West Yorkshire, U.K.). The solution was fed through the feed pump into the nozzle atomizer which atomized it into a spray of droplets with the help of a constant flow of nitrogen/air. […] This dry powder (11-12 g, H2O6.74%) was discharged continuously from the drying chamber and was collected in a bottle.

Rate of dissolution in H2O at 25° C. [3] | Compound | Sweetness Linger rating (defined for the protocol) [1] | also measured
 | C=C1C[C@@]23CC[C@H]4[C@@](C)(CCC[C@@]4(C)C(=O)O[C@@H]4O[C@H](CO)[C@@H](O)[C@H](O)[C@H]4O)[C@@H]2CC[C@]1(O[C@@H]1O[C@H](CO)[C@@H](O)[C@H](O[C@@H]2O[C@H](CO)[C@@H](O)[C@H](O)[C@H]2O)[C@H]1O[C@@H]1O[C@H](CO)[C@@H](O)[C@H](O)[C@H]1O)C3 [REBA, rebaudioside A] | 5 | Sweetness linger ([1]; Example Set G: 400 ppm REBA in citric acid/potassium citrate composition equivalent to diet lemon-lime beverage, with additive, sugar control 8 g in 100 ml citrate buffer): 5; Sweetness linger ([1]; Example Set H: 500 ppm REBA (H41: 360 ppm) in carbon-treated water, phosphoric acid (75%) to pH 2.4-2.5, with additive, sugar control 10 g in 100 ml): 5; Sweetness equivalent to sucrose ([2]; 180 ppm rebaudioside A in beverage diluted 1:1 with rebaudioside A/citrate composition): 5 % sucrose; Sweetness equivalent to sucrose ([2]; 400 ppm REBA in citric acid/potassium citrate composition): 8 g sucrose
< 0.2 %/60 minutes | C=C1C[C@@]23CC[C@H]4[C@@](C)(CCC[C@@]4(C)C(=O)O[C@@H]4O[C@H](CO)[C@@H](O)[C@H](O)[C@H]4O)[C@@H]2CC[C@]1(O[C@@H]1O[C@H](CO)[C@@H](O)[C@H](O[C@@H]2O[C@H](CO)[C@@H](O)[C@H](O)[C@H]2O)[C@H]1O[C@@H]1O[C@H](CO)[C@@H](O)[C@H](O)[C@H]1O)C3 [Form 1, rebaudioside A] |  | 
> 30 %/5 minutes | C=C1C[C@@]23CC[C@H]4[C@@](C)(CCC[C@@]4(C)C(=O)O[C@@H]4O[C@H](CO)[C@@H](O)[C@H](O)[C@H]4O)[C@@H]2CC[C@]1(O[C@@H]1O[C@H](CO)[C@@H](O)[C@H](O[C@@H]2O[C@H](CO)[C@@H](O)[C@H](O)[C@H]2O)[C@H]1O[C@@H]1O[C@H](CO)[C@@H](O)[C@H](O)[C@H]1O)C3 [Form 3, rebaudioside A] |  | 
> 35 %/5 minutes | C=C1C[C@@]23CC[C@H]4[C@@](C)(CCC[C@@]4(C)C(=O)O[C@@H]4O[C@H](CO)[C@@H](O)[C@H](O)[C@H]4O)[C@@H]2CC[C@]1(O[C@@H]1O[C@H](CO)[C@@H](O)[C@H](O[C@@H]2O[C@H](CO)[C@@H](O)[C@H](O)[C@H]2O)[C@H]1O[C@@H]1O[C@H](CO)[C@@H](O)[C@H](O)[C@H]1O)C3 [Form 4, rebaudioside A] |  | Solubility in water at room temperature [4]: > 35,0%
< 30 %/5 minutes | C=C1C[C@@]23CC[C@H]4[C@@](C)(CCC[C@@]4(C)C(=O)O[C@@H]4O[C@H](CO)[C@@H](O)[C@H](O)[C@H]4O)[C@@H]2CC[C@]1(O[C@@H]1O[C@H](CO)[C@@H](O)[C@H](O[C@@H]2O[C@H](CO)[C@@H](O)[C@H](O)[C@H]2O)[C@H]1O[C@@H]1O[C@H](CO)[C@@H](O)[C@H](O)[C@H]1O)C3 [Form 2, rebaudioside A] |  | 
 | OC[C@H]1O[C@@](CO)(O[C@H]2O[C@H](CO)[C@@H](O)[C@H](O)[C@H]2O)[C@@H](O)[C@@H]1O [sucrose] | 0 | 
